Data taken from US10913738B2 (BRISTOL-MYERS SQUIBB COMPANY, priority 2017, dated 2021).
Like-named read-outs stand apart in the source and are kept apart here.

What was measured:
[1] = biological target: T1, His-GST-TVMV-hRIPK1(1-324) (Homo sapiens, UniProt Q13546); test: RIPK1 HTRF Binding Assay
T1 construct: The coding region of human RIPK1(1-324) flanked by NdeI site at 5′ end; made in house; host or cells: Spodoptera frugiperda (Sf9) insect cells, baculovirus
T1 sequence (Q13546 1-324): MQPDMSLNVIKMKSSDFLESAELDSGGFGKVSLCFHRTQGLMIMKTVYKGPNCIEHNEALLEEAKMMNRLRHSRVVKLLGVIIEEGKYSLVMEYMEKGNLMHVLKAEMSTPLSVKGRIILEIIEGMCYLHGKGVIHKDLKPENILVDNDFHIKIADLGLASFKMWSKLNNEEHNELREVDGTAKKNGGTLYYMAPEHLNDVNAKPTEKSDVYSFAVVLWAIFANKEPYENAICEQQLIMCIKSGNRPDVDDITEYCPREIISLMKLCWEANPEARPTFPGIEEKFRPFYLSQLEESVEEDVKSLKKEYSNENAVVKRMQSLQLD

[2] = test system: MLKL phosphorylation in HT29-L23 human colorectal adenocarcinoma cells; test: MLKL Phosphorylation High-Content Assay; assay type: cell-based; conditions: Homo sapiens
Summary of the method: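 Cells incubated six hours at 37° C., then phospho-MLKL (S358) immunostained overnight at 4° C. and imaged by high-content microscopy. Phosphorylation quantified as mean circ-ring average intensity ratio; IC50 and Ymax from 4-parameter logistic fits.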

[3] = x marks IC50 class <20 nM, read-out: RIPK1 HTRF binding <20 nM
[4] = x marks IC50 class <20 nM, read-out: pMLKL cell activity <20 nM
[5] = x marks IC50 class 20-200 nM, read-out: pMLKL cell activity 20-200 nM
[6] = x marks IC50 class >200 nM, read-out: pMLKL cell activity >200 nM
[7] = x marks IC50 class 20-200 nM, read-out: RIPK1 HTRF binding 20-200 nM

Row | Compound | IC50 [1, 3] [nM] | IC50 [2, 5] [nM] | IC50 [2, 6] [nM] | IC50 [1, 7] [nM] | also measured
1 | [2H]C([2H])([2H])N(Cc1cc(OC(F)(F)F)ccc1F)C(=O)c1cc(-c2ccn3nc(N)nc3c2)cnc1OC [Example 367, 5-(2-amino-[1,2,4]triazolo[1,5-a]pyridin-7-yl)-N-(2-fluoro-5-(trifluoromethoxy)benzyl)-2-methoxy-N-(methyl-d3)nicotinamide] | < 20 |  |  |  | IC50 [2, 4]: < 20 nM
2 | Nc1nc2cc(-c3cc(C(=O)NCc4cc(OC(F)(F)F)ccc4F)cnc3Cl)ccn2n1 [Example 368, 5-(2-Amino-[1,2,4]triazolo[1,5-a]pyridin-7-yl)-6-chloro-N-(2-fluoro-5-(trifluoromethoxy)benzyl)nicotinamide] | < 20 | 20 to 200 |  |  | 
3 | Nc1nc2cc(-c3cc(C(=O)NCc4cc(F)ccc4OC(F)(F)F)cnc3Cl)ccn2n1 [Example 369, 5-(2-amino-[1,2,4]triazolo[1,5-a]pyridin-7-yl)-6-chloro-N-(5-fluoro-2-(trifluoromethoxy)benzyl)nicotinamide] | < 20 | 20 to 200 |  |  | 
4 | C[C@@H](NC(=O)c1cnc(Cl)c(-c2ccn3nc(N)nc3c2)c1)c1ccccc1OC(F)(F)F [Example 370, (R)-5-(2-amino-[1,2,4]triazolo[1,5-a]pyridin-7-yl)-6-chloro-N-(1-(2-(trifluoromethoxy)phenyl)ethyl)nicotinamide] | < 20 | 20 to 200 |  |  | 
5 | C[C@H](NC(=O)c1cnc(Cl)c(-c2ccn3nc(N)nc3c2)c1)c1cc(OC(F)(F)F)ccc1F [Example 371, (S)-5-(2-amino-[1,2,4]triazolo[1,5-a]pyridin-7-yl)-6-chloro-N-(1-(2-fluoro-5-(trifluoromethoxy)phenyl)ethyl)nicotinamide] | < 20 | 20 to 200 |  |  | 
6 | Nc1nc2cc(-c3cc(C(=O)NCc4ccccc4OC(F)(F)F)cnc3Cl)ccn2n1 [Example 372, 5-(2-amino-[1,2,4]triazolo[1,5-a]pyridin-7-yl)-6-chloro-N-(2-(trifluoromethoxy)benzyl)nicotinamide] | < 20 |  | > 200 |  | 
7 | CNc1cn2nc(-c3cnc(OC)c(C(=O)N[C@@H](C)c4cc(OC(F)(F)F)ccc4F)c3)ccc2n1 [Example 374, (S)—N-(1-(2-fluoro-5-(trifluoromethoxy)phenyl)ethyl)-2-methoxy-5-(2-(methylamino)imidazo[1,2-b]pyridazin-6-yl)nicotinamide] | < 20 | 20 to 200 |  |  | 
8 | [2H]C([2H])([2H])Nc1nc2cc(-c3cnc(C)c(C(=O)N[C@H](C)c4cc(OC(F)(F)F)ccc4F)c3)ccn2n1 [Example 375, (R)—N-(1-(2-fluoro-5-(trifluoromethoxy)phenyl)ethyl)-2-methyl-5-(2-((methyl-d3)amino)-[1,2,4]triazolo[1,5-a]pyridin-7-yl)nicotinamide] | < 20 | 20 to 200 |  |  | 
9 | COc1ncc(-c2ccn3nc(N)nc3c2)cc1C(=O)NCc1cc(F)ccc1C(=O)N1CCC(F)(F)C1 [Example 376, 5-(2-amino-[1,2,4]triazolo[1,5-a]pyridin-7-yl)-N-(2-(3,3-difluoropyrrolidine-1-carbonyl)-5-fluorobenzyl)-2-methoxynicotinamide] | < 20 |  |  |  | IC50 [2, 4]: < 20 nM
10 | COc1ncc(-c2ccn3nc(N)nc3c2)cc1C(=O)NCc1ccccc1C(=O)N1CCC(F)(F)C1 [Example 377, 5-(2-amino-[1,2,4]triazolo[1,5-a]pyridin-7-yl)-N-(2-(3,3-difluoropyrrolidine-1-carbonyl)benzyl)-2-methoxynicotinamide] |  | 20 to 200 |  | 20 to 200 | 
11 | COc1nc(C)c(-c2ccn3nc(N)nc3c2)cc1C(=O)NCc1cc(F)cc(F)c1C(=O)N1CCC(F)(F)C1 [Example 380, 5-(2-amino-[1,2,4]triazolo[1,5-a]pyridin-7-yl)-N-(2-(3,3-difluoropyrrolidine-1-carbonyl)-3,5-difluorobenzyl)-2-methoxy-6-methylnicotinamide] | < 20 |  |  |  | IC50 [2, 4]: < 20 nM
12 | COc1nc(C)c(-c2ccn3nc(N)nc3c2)cc1C(=O)NCc1cc(F)ccc1C(=O)N1CCC(F)(F)C1 [Example 381, 5-(2-amino-[1,2,4]triazolo[1,5-a]pyridin-7-yl)-N-(2-(3,3-difluoropyrrolidine-1-carbonyl)-5-fluorobenzyl)-2-methoxy-6-methylnicotinamide] | < 20 |  |  |  | IC50 [2, 4]: < 20 nM
13 | [2H]C([2H])([2H])[C@@H](NC(=O)c1nc(-c2ccn3nc(N)nc3c2)cnc1OC)c1cc(OC(F)(F)F)ccc1F [Example 383, (R)-6-(2-amino-[1,2,4]triazolo[1,5-a]pyridin-7-yl)-N-(1-(2-fluoro-5-(trifluoromethoxy)phenyl)ethyl-2,2,2-d3)-3-methoxypyrazine-2-carboxamide] | < 20 |  | > 200 |  | 
14 | COc1ncc(-c2ccn3nc(N)nc3c2)nc1C(=O)NCc1cc(OC(F)(F)F)ccc1F [Example 384, 6-(2-amino-[1,2,4]triazolo[1,5-a]pyridin-7-yl)-N-(2-fluoro-5-(trifluoromethoxy)benzyl)-3-methoxypyrazine-2-carboxamide] |  |  | > 200 | 20 to 200 | 
15 | COc1ncc(-c2ccn3nc(N)nc3c2)nc1C(=O)NCCC(C)c1ccccc1 (stereo not shown) [Example 385, 6-(2-amino-[1,2,4]triazolo[1,5-a]pyridin-7-yl)-3-methoxy-N-(3-phenylbutyl)pyrazine-2-carboxamide] |  |  | > 200 | 20 to 200 | 
16 | COc1nnc(-c2ccn3nc(N)nc3c2)cc1C(=O)NCc1cc(OC(F)(F)F)ccc1F [Example 386, 6-(2-amino-[1,2,4]triazolo[1,5-a]pyridin-7-yl)-N-(2-fluoro-5-(trifluoromethoxy)benzyl)-3-methoxypyridazine-4-carboxamide] |  |  | > 200 | 20 to 200 | 
17 | COc1nnc(-c2ccn3nc(N)nc3c2)cc1C(=O)NCCC(C)c1ccccc1 (stereo not shown) [Example 387, 6-(2-amino-[1,2,4]triazolo[1,5-a]pyridin-7-yl)-3-methoxy-N-(3-phenylbutyl)pyridazine-4-carboxamide] |  |  | > 200 | 20 to 200 | 
18 | COc1cnc(-c2ccn3nc(N)nc3c2)cc1C(=O)NCc1cc(OC(F)(F)F)ccc1F [Example 388, 2-(2-amino-[1,2,4]triazolo[1,5-a]pyridin-7-yl)-N-(2-fluoro-5-(trifluoromethoxy)benzyl)-5-methoxyisonicotinamide] |  | 20 to 200 |  | 20 to 200 | 
19 | COc1cnc(-c2ccn3nc(N)nc3c2)cc1C(=O)N[C@H](C)c1cc(OC(F)(F)F)ccc1F [Example 389, (R)-2-(2-amino-[1,2,4]triazolo[1,5-a]pyridin-7-yl)-N-(1-(2-fluoro-5-(trifluoromethoxy)phenyl)ethyl)-5-methoxyisonicotinamide] |  |  | > 200 | 20 to 200 | 
20 | COc1cnc(-c2ccn3nc(N)nc3c2)cc1C(=O)NCCC(C)c1ccccc1 (stereo not shown) [Example 390, 2-(2-amino-[1,2,4]triazolo[1,5-a]pyridin-7-yl)-5-methoxy-N-(3-phenylbutyl)isonicotinamide] |  |  | > 200 | 20 to 200 | 
21 | COc1cnc(-c2ccn3nc(N)nc3c2)cc1C(=O)NCc1cc(C(F)(F)F)ccc1F [Example 391, 2-(2-amino-[1,2,4]triazolo[1,5-a]pyridin-7-yl)-N-(2-fluoro-5-(trifluoromethyl)benzyl)-5-methoxyisonicotinamide] |  |  | > 200 |  | IC50 ([1]; x marks IC50 class >200 nM, read-out: RIPK1 HTRF binding >200 nM): > 200 nM
22 | Cc1cnc(-c2ccn3nc(N)nc3c2)cc1C(=O)N[C@H](C)c1cc(OC(F)(F)F)ccc1F [Example 392, (R)-2-(2-amino-[1,2,4]triazolo[1,5-a]pyridin-7-yl)-N-(1-(2-fluoro-5-(trifluoromethoxy)phenyl)ethyl)-5-methylisonicotinamide] | < 20 | 20 to 200 |  |  | 
23 | Cc1cnc(-c2ccn3nc(N)nc3c2)cc1C(=O)NCCC(C)c1ccccc1 (stereo not shown) [Example 393, 2-(2-amino-[1,2,4]triazolo[1,5-a]pyridin-7-yl)-5-methyl-N-(3-phenylbutyl)isonicotinamide] | < 20 | 20 to 200 |  |  | 
24 | Cc1cnc(-c2ccn3nc(N)nc3c2)cc1C(=O)NCc1cc(OC(F)(F)F)ccc1F [Example 394, 2-(2-amino-[1,2,4]triazolo[1,5-a]pyridin-7-yl)-N-(2-fluoro-5-(trifluoromethoxy)benzyl)-5-methylisonicotinamide] | < 20 | 20 to 200 |  |  | 
25 | Cc1cnc(-c2ccn3nc(N)nc3c2)cc1C(=O)NCC[C@@H](O)c1ccc(Cl)cc1 [Example 395, (R)-2-(2-amino-[1,2,4]triazolo[1,5-a]pyridin-7-yl)-N-(3-(4-chlorophenyl)-3-hydroxypropyl)-5-methylisonicotinamide] | < 20 | 20 to 200 |  |  | 
26 | Cc1cnc(-c2ccn3nc(N)nc3c2)cc1C(=O)NCc1cc(C(F)(F)F)ccc1F [Example 398, 2-(2-amino-[1,2,4]triazolo[1,5-a]pyridin-7-yl)-N-(2-fluoro-5-(trifluoromethyl)benzyl)-5-methylisonicotinamide] |  | 20 to 200 |  | 20 to 200 | 
